Test results taken from patent US20220040252A1, “TREATMENT OF PROSTATE CANCER BY ANDROGEN ABLATION AND IL-8 BLOCKADE” (The Trustees of Columbia University in the City of New York, priority 2019, published 2022).
Where two headings read alike, the source gives them in different places.

Assays:
Cxcl15 [1] = assay: Cxcl15 expression in benign prostate epithelium of mice (RISH, qRT-PCR); format: in vivo, mouse; conditions: WT mice treated with ADT followed by testosterone repletion, FIG. 2g
Text: Eight-week-old male HOXB13-GFP mice carrying the Hoxb13-rtTA transgene and a Tetracycline operator—Histone 2B-Green Fluorescent Protein (TetO-H2BGFP), which results on GFP expression being restricted to luminal epithelial Hoxb13^+ cells (described previously), were castrated via bilateral orchiectomy. A cycle of prostate regression/regeneration was induced as described previously. Briefly, mice were allowed to regress for six weeks to reach the fully involuted state. Mice were randomized to ADT or ADT+testosterone (T) treatment groups. Testosterone was administered for four weeks for prostate regeneration by subcutaneous pellets; this regimen yields physiological levels of serum testosterone. All mice received 2 mg/ml of Doxycycline (Sigma) in the drinking water to induce GFP expression under the control of the luminal epithelial promoter, HoxB13, one week prior euthanizing them for their analysis.
Manual fluorescent RNAScope was performed on formalin-fixed and zinc-fixed paraffin embedded sections using company protocols. Briefly, sections were cut at 5 μm, air dried overnight, baked at 60° C. for 1 hrs, dewaxed and air-dried before pre-treatments. RNAScope Cxcl15, 3-plex positive control probes (Polr2a, Ppib, Ubc) and 3-plex negative control probes (DapB of Bacillus subtilis strain) from Advanced Cell Diagnostics (ACD) were used in this study. […]

IL-8 [2] = conditions: men undergoing ADT with testosterone supplementation vs ADT, FIG. 2h; cited from earlier work
IL-8 (CXCL8) promoter [3] = conditions: LNCaP cells, cited from earlier work
IL-8 (CXCL8) promoter [4] = conditions: LNCaP cells, DHT 100 nM
Description: Chromatin immunoprecipitation was performed. In brief, LNCaP cells were washed with serum-free media and then grown in media containing 10% charcoal stripped FBS for 48 hours. Cells were treated with 100 nM DHT or vehicle for 8 hours. DNA was cross-linked with 1% formaldehyde in PBS for 10 minutes and crosslinking was quenched by addition of 0.125 M glycine. Fixed cells were then lysed in lysis buffer (1% SDS, 5 mM EDTA, 50 mM Tris HCl, pH8.1) and sonicated to a fragment size of 200-600 bp using a Covaris water bath sonicator (Woburn, Mass.). Sheared chromatin was then incubated with primary antibodies (AR [06-680, Millipore], H3K4me3 [ab8580, Abcam], phospho-SerS RNA polymerase 2 [ab5131, Abcam], RNA polymerase 2 [4H8, Cell Signaling Technologies] or control IgG [Cell Signaling Technologies]) overnight at 4° C. Complexes were immobilized on Dynabeads (Thermo Fisher) by incubating for 4 hours at 4° C. Beads were sequentially washed with TSEI (0.1% SDS, 1% Triton X-100, 2 mM EDTA, 20 mM Tris HCl, pH 8.1, 150 mM NaCl), TSEII (0.1% SDS, 1% Triton X-100, 2 mM EDTA, 20 mM Tris HCl, pH 8.1, 500 mM NaCl) and TSEIII (0.25 M LiCl, 1% NP-40, 1% deoxycholate, 1 mM EDTA, 10 mM Tris HCl, pH 8.1). […] Enriched DNA libraries were analyzed using primers specific to IL-8 locus: Forward: 5′ [sequence] […] 3′ (SEQ ID NO: 2) using quantitative (q) RT-PCR. […]

IL-8 [5] = assay: qRT-PCR quantification of IL-8 in LNCaP cells; format: cell-based, human; conditions: LNCaP cells in androgen-free media, FIG. 1f
Description: Myc-Cap, derived from spontaneous prostate cancer in c-Myc transgenic mice, was a generous gift from Dr. C. Sawyers. To generate MCRedAL, Myc-Cap cells were transfected with pRetroQ-mCherry-C1 (Clontech) using lipofectamine 2000 (Invitrogen) and isolated by FACS sorting based on mCherry expression (Extended Data FIG. 1a). Myc-Cap and MCRedAL cells were cultured in DMEM as previously described. LNCaP, VCaP, E006AA, CWR22Rv1, DU145, and PC3 cell lines were obtained and cultured as recommended by the ATCC. LAPC4 (a gift from Dr. S. Yegnasubramanian) were maintained in RPMI-1640 (Corning) supplemented with 10% fetal bovine serum (FBS; Gemini Bio-Products). Androgen independent LNCaP-abl cells were a gift from Dr. Z. Culig and cultured as described previously^29. LAPC4-CR and VCaP-CR (a gift from S. Yegnasubramanian) were derived by passaging LAPC4 and VCaP cells through castrated animals and further subculturing in RPMI-1640 supplemented with 10% charcoal stripped serum (CSS; Gemini Bio-Products) supplemented with 1×B-27 Neuronal Supplement (Gibco). For experiments when cells were grown in androgen-free conditions, 10% FBS was substituted for 10% CSS in complete media. For migration/chemotaxis assays, prostate cancer cell lines were cultured in complete media containing either 0.5% or 2.5% FBS for human and murine cells, respectively. […]

PSA (KLK3) promoter = conditions: LNCaP cells, DHT 100 nM, FIG. 1h right
Description: Chromatin immunoprecipitation was performed. In brief, LNCaP cells were washed with serum-free media and then grown in media containing 10% charcoal stripped FBS for 48 hours. Cells were treated with 100 nM DHT or vehicle for 8 hours. […] Fixed cells were then lysed in lysis buffer (1% SDS, 5 mM EDTA, 50 mM Tris HCl, pH8.1) and sonicated to a fragment size of 200-600 bp using a Covaris water bath sonicator (Woburn, Mass.). Sheared chromatin was then incubated with primary antibodies (AR [06-680, Millipore], H3K4me3 [ab8580, Abcam], phospho-SerS RNA polymerase 2 [ab5131, Abcam], RNA polymerase 2 [4H8, Cell Signaling Technologies] or control IgG [Cell Signaling Technologies]) overnight at 4° C. Complexes were immobilized on Dynabeads (Thermo Fisher) by incubating for 4 hours at 4° C. Beads were sequentially washed with TSEI (0.1% SDS, 1% Triton X-100, 2 mM EDTA, 20 mM Tris HCl, pH 8.1, 150 mM NaCl), TSEII (0.1% SDS, 1% Triton X-100, 2 mM EDTA, 20 mM Tris HCl, pH 8.1, 500 mM NaCl) and TSEIII (0.25 M LiCl, 1% NP-40, 1% deoxycholate, 1 mM EDTA, 10 mM Tris HCl, pH 8.1). DNA was eluted with IP Elution buffer (1% SDS, 0.1M NaHCO3, proteinase K) and incubated at 56° C. for 15 minutes. […] Data is shown as relative enrichment normalized to input DNA.

Myc-Cap tumors = assay: Immune infiltration (PMN-MDSC, TIL, TAM) of Myc-Cap tumors by flow cytometry; format: in vivo, mouse; conditions: Myc-Cap allografts after ADT, FIG. 3b
Description: Eight-week-old male FVB/NJ and J:NU mice were subcutaneously inoculated in the right flank with either Myc-Cap or MCRedAL (1×10^6 cells/mouse), and LNCaP or PC3 (3×10^6 cells/mouse), respectively. Tumor diameters were measured with electronic calipers every 3 days as indicated and the tumor volume was calculated using the formula: [longest diameter×(shortest diameter)^2]/2. Myc-Cap tumor bearing mice received androgen-deprivation therapy (ADT) 4 weeks after tumor implantation when tumor volume reached ˜500 mm^3, as indicated in figure legends. […] Onset of castration-resistance was defined as the time to tumor size increased by 30% (˜650 mm^3) after ADT. Chemical castration by ADT was compared to bilateral orchiectomy as described in FIG. 1a. […]
Single-cell suspensions from prostate tumor and tissues were prepared using the Mouse Tumor Dissociation Kit according to the manufacturer's recommendations (Miltenyi). […] Gates of cytokines were determined by fluorescence minus one (FMO) controls. Staining was visualized by fluorescenceactivated cell sorting (FACS) analysis using a BD FACSCelesta™ (BD Biosciences) and analyzed using FlowJo® (Flowjo LLC). […]

Cxcl15 [6] = assay: Expression analysis of sorted MCRedAL tumor cells pre- and post-ADT; format: in vivo, mouse
Description: Eight-week-old male FVB/NJ and J:NU mice were subcutaneously inoculated in the right flank with either Myc-Cap or MCRedAL (1×10^6 cells/mouse), and LNCaP or PC3 (3×10^6 cells/mouse), respectively. Tumor diameters were measured with electronic calipers every 3 days as indicated and the tumor volume was calculated using the formula: [longest diameter×(shortest diameter)^2]/2. Myc-Cap tumor bearing mice received androgen-deprivation therapy (ADT) 4 weeks after tumor implantation when tumor volume reached ˜500 mm^3, as indicated in figure legends. […]
Tumors collected at different treatment time points were minced, lysed in CelLytic MT (Sigma) containing halt protease and phosphatase inhibitor (Thermo Fisher) in a 1:100 ratio, and incubated on ice for 30 minutes with intermittent vortexing. […] IL-8 and Cxcl15 were analyzed by ELISA kits following the manufacturer's instructions (BD Bioscience and R&D Systems, respectively).
MCRedAL tumor were harvested when their tumor volume reached ˜500 mm^3 (CS group), and 7 days after chemical castration (ADT). […] Resulting CEL files were analyzed in Affymetrix Expression Console (v. 1.4) using the SST-RMA method, and all samples passed the quality control. Log2 probe intensities were extracted from CEL (signal intensity) files and normalized using RMA quantile normalization, then further analyzed using Partek Genomics Suite v6.6. […]

IL-8 [7] = conditions: high-risk PCa patients treated with ADT (degarelix 240 mg SQ) vs untreated controls, FIG. 2i
Description: Formalin fixed, paraffin embedded (FFPE) human prostate cancer samples were obtained from consented patients treated with ADT (degarelix; 240 mg SQ) in a neo-adjuvant trial (NCT01696877) and matched control radical prostatectomies were obtained from patients treated at the Johns Hopkins Sidney Kimmel Comprehensive Cancer Center (Baltimore, Md.) under IRB-approved clinical protocol J1265. All patients provided written, informed consent. Total RNA was extracted using Trizol (Ambion). cDNA was prepared from total RNA preps using the RNA to cDNA EcoDry Premix (Clontech). Real-time assays were conducted using TaqMan real-time probes (Applied Biosystems). AA CT method was used for relative gene expression. Expression of the target gene was normalized to the reference gene (18S) and the mean expression level of the control group. LCM samples were normalized to 18S, TBP, and GAPDH reference genes. […] Sections were deparaffinized, hydrated and stained with hematoxylin prior to microdissection. Individual cancer cells and cancer cell clusters were microdissected by a trained pathologist using a LMD 7000 laser capture microscope (Leica). RNA was recovered from the microdisseceted material using the RNeasy FFPE kit (Qiagen). Quantitative RT-PCR was performed as described above. For the analysis, a Mann-Whitney U test was performed.

C[C@]12CC[C@H]3[C@@H](CCC4=CC(=O)CC[C@@]43C)[C@@H]1CC[C@@H]2O [testosterone]
epithelial Cxcl15 expression (Cxcl15 [1]): expression significantly decreased by testosterone repletion | IL-8 mRNA expression (IL-8 [2]): significantly reduced IL-8 mRNA expression

C[C@]12CCC(=O)C[C@@H]1CC[C@@H]1[C@@H]2CC[C@]2(C)[C@@H](O)CC[C@@H]12 [DHT, dihydrotestosterone]
AR binding at the IL-8 promoter (in silico ChIP-Seq analysis, GSE83860) (IL-8 (CXCL8) promoter [3]; DHT 100 nM, FIG. 1g top): found AR binding at the IL-8 promoter | androgen dependent AR binding at the IL-8 promoter (ChIP-qRT-PCR) (IL-8 (CXCL8) promoter [4]; FIG. 1h): verified by ChIP-qRT-PCR | binding of pol II, pSer2 pol II and H3K4me3 to the IL-8 locus (IL-8 (CXCL8) promoter [4]; FIG. 1h left): substantially reduced | IL-8 expression (qRT-PCR) (IL-8 [5]): did not affect IL-8 expression | pSer2 pol II binding to the promoter of PSA (KLK3) (PSA (KLK3) promoter): significantly increased

degarelix acetate [ADT]
T cell influx into tumor (Myc-Cap tumors): promoted a transient T cell influx | tumor associated macrophage (TAM) populations (Myc-Cap tumors): without significant changes in tumor associated macrophage (TAM) populations | Cxcl15 transcript (microarray) (Cxcl15 [6]; MCRedAL tumor cells, 7 days after chemical castration vs castration-sensitive, FIG. 1d): significantly up-regulated post-ADT | Cxcl15 (qRT-PCR and ELISA) (Cxcl15 [6]; post-ADT, data not shown): confirmed the upregulation of Cxcl15 post-ADT at the protein level | IL-8 expression (qRT-PCR) (IL-8 [7]): increased IL-8 expression

TNFα
p65 binding at the IL-8 (CXCL8) promoter (ChIP-Seq, GSE83860) (IL-8 (CXCL8) promoter [3]; TNFα 1000 U/ml, FIG. 1g bottom): significantly increased p65 binding | IL-8 expression (qRT-PCR) (IL-8 [5]): upregulated IL-8 expression in a dose-dependent manner
